Experiment [1] has as its system IL-6 in A549 cells. Description: Cell-based IL-6 ELISA assay in IL-1beta stimulated A549 cells. To be noted: 2 ng/ml human IL-1beta overnight. In short, it runs like this:
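A549 cells (2.5×10^4/well, DMEM/10% FBS) pretreated 30 min at 37 C with compound, 10-point serial dilution from 10 uM, then stimulated overnight with 2 ng/ml human IL-1beta. Secreted IL-6 in supernatant quantified by human IL-6 ELISA.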

The target of experiment [2] is IRAK4 (Homo sapiens (Human), UniProt Q9NWZ3). Description: IRAK-4 AlphaScreen biochemical kinase assay. As to conditions: 1 nM IRAK4, 1 mM ATP, 3.5 h at RT. In short, it runs like this:
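AlphaScreen read-out: streptavidin beads bind the biotinylated peptide and protein A beads bind the anti-phosphothreonine antibody, so energy transfer reports phosphorylation of the peptide. The kinase is human IRAK-4.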
On the technique in general: Bead proximity is the source of the signal in Alpha formats.

Among the data in patent US10246456B2, “IRAK4 inhibiting agents” (BIOGEN MA INC., priority 2014, dated 2019) are EC50 and IC50 values, retold here.

Sequence of IRAK4 (Q9NWZ3 whole entry, species assumed): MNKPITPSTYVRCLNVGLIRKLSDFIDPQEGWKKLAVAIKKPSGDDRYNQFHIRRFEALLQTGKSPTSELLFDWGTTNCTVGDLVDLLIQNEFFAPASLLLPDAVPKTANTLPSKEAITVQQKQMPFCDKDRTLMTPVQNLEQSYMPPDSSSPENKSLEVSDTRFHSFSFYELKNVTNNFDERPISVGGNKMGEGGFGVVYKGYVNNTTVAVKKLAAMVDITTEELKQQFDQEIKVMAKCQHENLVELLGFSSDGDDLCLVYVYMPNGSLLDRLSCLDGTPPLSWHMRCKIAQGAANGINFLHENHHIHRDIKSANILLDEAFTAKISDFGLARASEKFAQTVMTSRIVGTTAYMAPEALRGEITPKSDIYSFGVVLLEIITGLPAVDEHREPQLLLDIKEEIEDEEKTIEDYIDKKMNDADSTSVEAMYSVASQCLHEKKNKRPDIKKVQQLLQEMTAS

What is called EC50 is the midpoint of the concentration-response curve. Read a low EC50 as greater potency. As a reminder, the IC50 is the concentration at which inhibition is half-maximal. A low value points to greater potency in that assay. In experiment [1], `CCC[C@H](N)c1cccc(-c2ccc3cnn(-c4nccc(C(F)F)n4)c3c2)n1` [Example 486, (S)-1-(6-(1-(4-(difluoromethyl)pyrimidin-2-yl)-1H-indazol-6-yl)pyridin-2-yl)butan-1-amine] displayed an EC50 of at most 1000 nM. For the same compound, the IC50 in experiment [2] is below 100 nM.
`CCC[C@H](N)c1cccc(-c2cc(CF)c3cnn(-c4cccc(CO)n4)c3c2)n1` [Example 487, (S)-(6-(6-(6-(l-aminobutyl)pyridin-2-yl)-4-(fluoromethyl)-1H-indazol-1-yl)pyridin-2-yl)methanol] came in with an EC50 in experiment [1] of at most 1000 nM. The compound further displayed an IC50 in experiment [2] below 100 nM.
On to `CCC[C@H](N)c1cccc(-c2cc(C3=CCN(C(C)=O)CC3)c3cnn(-c4cccc(CO)n4)c3c2)n1` [Example 488, (S)-1-(4-(6-(6-(1-aminobutyl)pyridin-2-yl)-1-(6-(hydroxymethyl)pyridin-2-yl)-1H-indazol-4-yl)-5,6-dihydropyridin-1(2H)-yl)ethanone], for which the EC50 in experiment [1] was at most 1000 nM. In experiment [2], this compound registered an IC50 below 100 nM.
In experiment [1], `CCC[C@H](N)c1cccc(-c2cc(OC)c3cnn(-c4cncc(CO)n4)c3c2)n1` [Example 489, (S)-(6-(6-(6-(1-aminobutyl)pyridin-2-yl)-4-methoxy-1H-indazol-1-yl)pyrazin-2-yl)methanol] returned an EC50 of at most 1000 nM. This compound also returned an IC50 in experiment [2] below 100 nM.
In turn, `CCC[C@H](N)c1cccc(-c2cc(Cl)c3cnn(-c4cccc(CO)n4)c3c2)n1` [Example 490, (S)-(6-(6-(6-(1-aminobutyl)pyridin-2-yl)-4-chloro-1H-indazol-1-yl)pyridin-2-yl)methanol] gave an EC50 in experiment [1] of at most 1000 nM. The compound also registered an IC50 in experiment [2] below 100 nM.
`CCC[C@H](N)c1cccc(-c2cc(C(F)F)c3cnn(-c4cccc(CO)n4)c3c2)n1` [Example 491, (S)-(6-(6-(6-(1-aminobutyl)pyridin-2-yl)-4-(difluoromethyl)-1H-indazol-1-yl)pyridin-2-yl)methanol] displayed an EC50 in experiment [1] of at most 1000 nM. The compound also gave an IC50 in experiment [2] below 100 nM.
For `CCC[C@H](N)c1cccc(-c2cc(CO)c3cnn(-c4cccc(CO)n4)c3c2)n1` [Example 492, (S)-(6-(6-(1-aminobutyl)pyridin-2-yl)-1-(6-(hydroxymethyl)pyridin-2-yl)-1H-indazol-4-yl)methanol], the EC50 in experiment [1] was at most 1000 nM. For the same compound, in experiment [2], the IC50 is below 100 nM.
Regarding `CCCC[C@H](N)c1cccc(-c2ccc3cnn(-c4cccc(CO)n4)c3c2)n1` [Example 493, (S)-(6-(6-(6-(1-aminopentyl)pyridin-2-yl)-1H-indazol-1-yl)pyridin-2-yl)methanol], the EC50 in experiment [1] was at most 1000 nM. This compound also came in with an IC50 in experiment [2] below 100 nM.
Turning to `CCC[C@H](N)c1cccc(-c2cc(C3=CCOCC3)c3cnn(-c4cccc(CO)n4)c3c2)n1` [Example 494, (S)-(6-(6-(6-(1-aminobutyl)pyridin-2-yl)-4-(3,6-dihydro-2H-pyran-4-yl)-1H-indazol-1-yl)pyridin-2-yl)methanol], the EC50 in experiment [1] was at most 1000 nM. The compound further registered an IC50 in experiment [2] below 100 nM.
In the case of `CCC[C@H](N)c1cccc(-c2cc(COC)c3cnn(-c4cccc(CO)n4)c3c2)n1` [Example 495, (S)-(6-(6-(6-(1-aminobutyl)pyridin-2-yl)-4-(methoxymethyl)-1H-indazol-1-yl)pyridin-2-yl)methanol], in experiment [1], the EC50 is at most 1000 nM. In experiment [2], this compound had an IC50 below 100 nM.
`COc1cc(-c2cccc([C@@H](N)C3CC3)n2)cc2c1cnn2-c1cncc(CO)n1` [Example 496, (S)-(6-(6-(6-(amino(cyclopropyl)methyl)pyridin-2-yl)-4-methoxy-1H-indazol-1-yl)pyrazin-2-yl)methanol] came in with an EC50 in experiment [1] of at most 1000 nM. Besides, the half-maximal inhibitory concentration (IC50) in experiment [2] was below 100 nM.
As to `CCC[C@H](N)c1cccc(-c2cc(COC(F)F)c3cnn(-c4cccc(CO)n4)c3c2)n1` [Example 497, (S)-(6-(6-(6-(1-aminobutyl)pyridin-2-yl)-4-((difluoromethoxy)methyl)-1H-indazol-1-yl)pyridin-2-yl)methanol], the EC50 in experiment [1] is at most 1000 nM. In experiment [2], this compound returned an IC50 below 100 nM.
In experiment [1], `CCC[C@H](N)c1cccc(-c2cc(CN3CCOCC3)c3cnn(-c4cccc(CO)n4)c3c2)n1` [Example 498, (S)-(6-(6-(6-(1-aminobutyl)pyridin-2-yl)-4-(morpholinomethyl)-1H-indazol-1-yl)pyridin-2-yl)methanol] gave an EC50 of at most 1000 nM. For the same compound, in experiment [2], the IC50 was below 100 nM.
The matching figures for `CCC[C@H](N)c1cccc(-c2cc(OCC)c3cnn(-c4cncc(CO)n4)c3c2)n1` [Example 499, (S)-(6-(6-(6-(1-aminobutyl)pyridin-2-yl)-4-ethoxy-1H-indazol-1-yl)pyrazin-2-yl)methanol]: at most 1000 nM and below 100 nM.
`CCOc1cc(-c2cccc([C@@H](N)CC)n2)cc2c1cnn2-c1cncc(CO)n1` [Example 500, (S)-(6-(6-(6-(1-aminopropyl)pyridin-2-yl)-4-ethoxy-1H-indazol-1-yl)pyrazin-2-yl)methanol] yielded an EC50 in experiment [1] of at most 1000 nM. In experiment [2], this compound yielded an IC50 below 100 nM.
On to `CCOc1cc(-c2cccc([C@@H](N)C3CC3)n2)cc2c1cnn2-c1cncc(CO)n1` [Example 501, (S)-(6-(6-(6-(amino(cyclopropyl)methyl)pyridin-2-yl)-4-ethoxy-1H-indazol-1-yl)pyrazin-2-yl)methanol], for which the EC50 in experiment [1] is at most 1000 nM. The IC50 in experiment [2] is below 100 nM.
In turn, `COc1cc(-c2cccc([C@@H](N)CCC(F)(F)F)n2)cc2c1cnn2-c1cccc(CO)n1` [Example 502, (S)-(6-(6-(6-(1-amino-4,4,4-trifluorobutyl)pyridin-2-yl)-4-methoxy-1H-indazol-1-yl)pyridin-2-yl)methanol] had an EC50 in experiment [1] of at most 1000 nM. Besides, in experiment [2], the IC50 is below 100 nM.
In experiment [1], `CC[C@H](N)c1cccc(-c2cc(OC)c3cnn(-c4cncc(CO)n4)c3c2)n1` [Example 503, (S)-(6-(6-(6-(1-aminopropyl)pyridin-2-yl)-4-methoxy-1H-indazol-1-yl)pyrazin-2-yl)methanol] displayed an EC50 of at most 1000 nM. For the same compound, the IC50 in experiment [2] is below 100 nM.
`CCC[C@H](N)c1cccc(-c2cc(OC)c3cnn(-c4nccc(C(F)(F)F)n4)c3c2)n1` [Example 504, (S)-1-(6-(4-methoxy-1-(4-(trifluoromethyl)pyrimidin-2-yl)-1H-indazol-6-yl)pyridin-2-yl)butan-1-amine] came in with an EC50 in experiment [1] of at most 1000 nM. This compound returned an IC50 in experiment [2] below 100 nM.
`CCC[C@H](N)c1cccc(-c2cc(OCC)c3cnn(-c4nccc(C(F)(F)F)n4)c3c2)n1` [Example 505, (S)-1-(6-(4-ethoxy-1-(4-(trifluoromethyl)pyrimidin-2-yl)-1H-indazol-6-yl)pyridin-2-yl)butan-1-amine] came in with an EC50 in experiment [1] of at most 1000 nM. The compound also displayed an IC50 in experiment [2] below 100 nM.
`CCC[C@H](N)c1cccc(-c2cc(OCC3CCCNC3)c3cnn(-c4cccc(CO)n4)c3c2)n1` (stereo partly drawn) [Example 506, (6-(6-(6-((S)-1-aminobutyl)pyridin-2-yl)-4-(piperidin-3-ylmethoxy)-1H-indazol-1-yl)pyridin-2-yl)methanol] displayed an EC50 in experiment [1] of at most 1000 nM. The same compound gave an IC50 in experiment [2] below 100 nM.
In the same order, the values of `CCC(O)C(N)c1cccc(-c2ccc3cnn(-c4cccc(CO)n4)c3c2)n1` (stereo not shown) [Example 507, 1-amino-1-(6-(1-(6-(hydroxymethyl)pyridin-2-yl)-1H-indazol-6-yl)pyridin-2-yl)butan-2-ol] are at most 1000 nM and below 100 nM.
Take `CC(O)CC(N)c1cccc(-c2ccc3cnn(-c4cccc(CO)n4)c3c2)n1` (stereo not shown) [Example 508, 4-amino-4-(6-(1-(6-(hydroxymethyl)pyridin-2-yl)-1H-indazol-6-yl)pyridin-2-yl)butan-2-ol]: the EC50 in experiment [1] was at most 1000 nM. In experiment [2], the IC50 was below 100 nM.
In experiment [1], `COCCC[C@H](N)c1cccc(-c2cc(OC)c3cnn(-c4cccc(CO)n4)c3c2)n1` [Example 509, (S)-(6-(6-(6-(1-amino-4-methoxybutyl)pyridin-2-yl)-4-methoxy-1H-indazol-1-yl)pyridin-2-yl)methanol] yielded an EC50 of at most 1000 nM. This compound also returned an IC50 in experiment [2] below 100 nM.
With `CCOc1cc(-c2cccc([C@@H](N)CCC(F)(F)F)n2)cc2c1cnn2-c1cccc(CO)n1` [Example 510, (S)-(6-(6-(6-(1-amino-4,4,4-trifluorobutyl)pyridin-2-yl)-4-ethoxy-1H-indazol-1-yl)pyridin-2-yl)methanol], the EC50 in experiment [1] is at most 1000 nM. The compound also displayed an IC50 in experiment [2] below 100 nM.
Compound `CCC[C@H](N)c1cccc(-c2cc(C#N)c3cnn(-c4cccc(CO)n4)c3c2)n1` [Example 511, (S)-6-(6-(1-aminobutyl)pyridin-2-yl)-1-(6-(hydroxymethyl)pyridin-2-yl)-1H-indazole-4-carbonitrile] showed an EC50 in experiment [1] of at most 1000 nM. The half-maximal inhibitory concentration (IC50) in experiment [2] was below 100 nM.
`CC[C@H](N)c1cccc(-c2ccc3cnn(-c4nccc(C(F)F)n4)c3c2)n1` [Example 512, (S)-1-(6-(1-(4-(difluoromethyl)pyrimidin-2-yl)-1H-indazol-6-yl)pyridin-2-yl)propan-1-amine]: the EC50 in experiment [1] was at most 1000 nM. Moreover, the IC50 in experiment [2] was below 100 nM.
`CCOc1cc(-c2cccc([C@@H](N)CCCOC)n2)cc2c1cnn2-c1cccc(CO)n1` [Example 513, (S)-(6-(6-(6-(1-amino-4-methoxybutyl)pyridin-2-yl)-4-ethoxy-1H-indazol-1-yl)pyridin-2-yl)methanol] yielded an EC50 in experiment [1] of at most 1000 nM. In addition, the IC50 in experiment [2] is below 100 nM.
`CCC[C@H](N)c1cccc(-c2cc(OCC(F)(F)F)c3cnn(-c4cccc(CO)n4)c3c2)n1` [Example 514, (S)-(6-(6-(6-(1-aminobutyl)pyridin-2-yl)-4-(2,2,2-trifluoroethoxy)-1H-indazol-1-yl)pyridin-2-yl)methanol] displayed an EC50 in experiment [1] of at most 1000 nM. Further, in experiment [2], the IC50 is below 100 nM.
